In DBAASP one finds MIC data, which are given here for nine molecules.

Values after ≈ are worked out from the molar mass of the structure shown.

Common to all, as to assay: ≥ marks a high value that may be exact or a test limit, other limits are often not marked, values filed in µg/mL are converted to µM
Test [1] concerns Escherichia coli IFO 12734.
Test [2] deals with Staphylococcus aureus IFO 12732.
Test [3] deals with Bacillus subtilis IFO 3513.
Test [4] has as its system Staphylococcus aureus ATCC 6538P.
The test system of test [5] is Staphylococcus aureus.
Test [6] relates to Escherichia coli JM109.
The test system of test [7] is Pseudomonas aeruginosa.
Test [8] concerns Staphylococcus aureus ATCC 700699.
The test system of test [9] is Staphylococcus aureus ATCC 29213.
Test [10] relates to Klebsiella pneumoniae ATCC 700603.
For test [11], the system named is Pseudomonas aeruginosa ATCC 27853.
Test [12] concerns Staphylococcus aureus ATCC 33591.
For test [13], the system named is Escherichia coli ATCC 25922.
The test system of test [14] is Staphylococcus epidermidis RP62A/1.
Test [15] has as its system Staphylococcus aureus ATCC 25923.
In test [16] the test system is Stenotrophomonas maltophilia.
Test [17] has as its system Staphylococcus epidermidis RP62A.
Test [18] relates to Escherichia coli ATCC 25726.
The test system of test [19] is Candida albicans ATCC 90028.
Test [20] concerns Acinetobacter baumannii.
In test [21] the test system is Proteus mirabilis ATCC 25933.
Test [22] has as its system Micrococcus luteus ATCC 9341.
In test [23] the test system is Staphylococcus epidermidis C621.
Test [24] concerns Escherichia coli DC2.
The subject of test [25] is Escherichia coli UB1005.
Test [26] deals with Corynebacterium xerosis C875.

In general, MIC refers to the lowest concentration found to suppress growth. `CC[C@H](C)[C@H](N)C(=O)N[C@@H](CC(C)C)C(=O)N1CCC[C@H]1C(=O)N[C@@H](Cc1c[nH]c2ccccc12)C(=O)N[C@@H](CCCCN)C(=O)N[C@@H](Cc1c[nH]c2ccccc12)C(=O)N1CCC[C@H]1C(=O)N[C@@H](Cc1c[nH]c2ccccc12)C(=O)N[C@@H](CC(C)C)C(=O)N1CCC[C@H]1C(=O)N[C@@H](Cc1ccc(O)cc1)C(=O)N[C@@H](CCCN=C(N)N)C(=O)N[C@@H](CCCN=C(N)N)C(N)=O` [ILPWKWPWLPYRR]: the figures for the minimum inhibitory concentration (MIC) in test [1], in test [2] and in test [3] were 27.6 µM (≈ 50 µg/mL), 3.45 µM (≈ 6.25 µg/mL) and 1.73 µM (≈ 3.13 µg/mL), respectively.

`CC[C@H](C)[C@H](NC(=O)[C@H](C)NC(=O)[C@H](CC(C)C)NC(=O)[C@H](CS)NC(=O)[C@H](CC(C)C)NC(=O)[C@H](C)NC(=O)[C@H](C)NC(=O)[C@H](CS)NC(=O)[C@@H](N)CC(C)C)C(=O)NCC(=O)N[C@@H](CCCN=C(N)N)C(=O)N[C@@H](CCCN=C(N)N)C(N)=O` [LCAALCLAIGRR]: the MIC is 4.76 µM (≈ 6 µg/mL) in test [4], 38.1 µM (≈ 48 µg/mL) in [5] and 19.1 µM (≈ 24 µg/mL) in test [6].

In the case of `CC[C@H](C)[C@H](NC(=O)[C@H](C)NC(=O)[C@H](CC(C)C)NC(=O)[C@H](CCCN=C(N)N)NC(=O)[C@H](CC(C)C)NC(=O)[C@H](C)N)C(=O)N[C@@H](CCCN=C(N)N)C(=O)N[C@@H](CCCN=C(N)N)C(=O)N[C@@H](CCCN=C(N)N)C(N)=O` [ALRLAIRRR], the minimal inhibitory concentration (MIC) in test [4] is 1.78 µM (≈ 2 µg/mL); in test [7], 2.67 µM (≈ 3 µg/mL); in test [5], greater than 42.7 µM; in test [6] it was 1.33 µM (≈ 1.5 µg/mL).

`CC[C@H](C)[C@H](NC(=O)[C@H](CC(=O)O)NC(=O)[C@H](CCCCN)NC(=O)[C@H](C)NC(=O)[C@H](C)NC(=O)CNC(=O)[C@H](CCCCN)NC(=O)[C@H](CC(C)C)NC(=O)[C@@H](NC(=O)[C@H](CC(=O)O)NC(=O)[C@@H](NC(=O)[C@@H](NC(=O)CN)C(C)C)C(C)C)[C@@H](C)CC)C(=O)N[C@@H](C)C(=O)N[C@@H](C)C(=O)N[C@@H](Cc1cnc[nH]1)C(=O)N[C@@H](CC(C)C)C(=O)N[C@@H](C)C(=O)N[C@@H](CO)C(=O)N[C@@H](CCCCN)C(=O)N[C@H](C(=O)N[C@@H](CCSC)C(=O)N[C@@H](CC(N)=O)C(=O)N[C@@H](CCCCN)C(=O)N[C@@H](CC(C)C)C(N)=O)C(C)C` [GVVDILKGAAKDIAAHLASKVMNKL]: the MIC in test [8] is no less than 100 µM; in [9] it was greater than 100 µM; in test [10] it was 50 µM (≈ 128 µg/mL); in test [11] it was 100 µM (≈ 256 µg/mL); in test [12], no less than 100 µM; in test [13], 12.5 µM (≈ 32 µg/mL).

Consider `CC[C@H](C)[C@H](N)C(=O)N[C@@H](CCCCN)C(=O)N[C@@H](CC(C)C)C(=O)N[C@@H](CO)C(=O)N[C@@H](CCCCN)C(=O)N[C@@H](CCC(=O)O)C(=O)N[C@H](C(=O)N[C@@H](CCCCN)C(=O)N[C@@H](CC(=O)O)C(=O)N[C@@H](CC(N)=O)C(=O)N[C@@H](CC(C)C)C(=O)N[C@@H](CCCCN)C(=O)N[C@@H](CCCCN)C(=O)N[C@H](C(=O)N[C@@H](CC(C)C)C(=O)N[C@@H](CCCCN)C(=O)NCC(=O)N[C@@H](C)C(=O)N[C@H](C(=O)N[C@@H](CCCCN)C(=O)NCC(=O)N[C@@H](C)C(=O)N[C@H](C(=O)N[C@@H](C)C(=O)N[C@H](C(=O)N[C@@H](C)C(=O)N[C@@H](CCCCN)C(=O)N[C@@H](CCSC)C(=O)N[C@H](C(N)=O)C(C)C)C(C)C)[C@@H](C)CC)[C@@H](C)CC)C(C)C)[C@@H](C)O` [IKLSKETKDNLKKVLKGAIKGAIAVAKMV], for which the minimum inhibitory concentration (MIC) in test [14] came to 1.6 µM (≈ 4.95 µg/mL); in [15], 6.25 µM (≈ 19.3 µg/mL); in test [16], 3.1 µM (≈ 9.59 µg/mL); in [9], 6.25 µM (≈ 19.3 µg/mL); in test [10], 12.5 µM (≈ 38.7 µg/mL); in [11] it was 25 µM (≈ 77.4 µg/mL). For the same molecule, the MIC in test [17] was 1.6 µM (≈ 4.95 µg/mL); in test [18], 12.5 µM (≈ 38.7 µg/mL); in test [19] it was no less than 50 µM; in test [20], 6.25 µM (≈ 19.3 µg/mL); in [21], no less than 100 µM.

Consider `CC[C@H](C)[C@H](N)C(=O)N[C@@H](CCCCN)C(=O)N[C@@H](CC(C)C)C(=O)N[C@@H](CO)C(=O)N[C@@H](CCCCN)C(=O)N[C@@H](CCC(=O)O)C(=O)N[C@H](C(=O)N[C@@H](CCCCN)C(=O)N[C@@H](CCCCN)C(=O)N[C@@H](CC(N)=O)C(=O)N[C@@H](CC(C)C)C(=O)N[C@@H](CCCCN)C(=O)N[C@@H](CCCCN)C(=O)N[C@H](C(=O)N[C@@H](CC(C)C)C(=O)N[C@@H](CCCCN)C(=O)NCC(=O)N[C@@H](C)C(=O)N[C@H](C(=O)N[C@@H](CCCCN)C(=O)NCC(=O)N[C@@H](C)C(=O)N[C@H](C(=O)N[C@@H](C)C(=O)N[C@H](C(=O)N[C@@H](C)C(=O)N[C@@H](CCCCN)C(=O)N[C@@H](CCSC)C(=O)N[C@H](C(N)=O)C(C)C)C(C)C)[C@@H](C)CC)[C@@H](C)CC)C(C)C)[C@@H](C)O` [IKLSKETKKNLKKVLKGAIKGAIAVAKMV], for which the MIC in test [14] stood at 1.6 µM (≈ 4.97 µg/mL); in test [15], 3.1 µM (≈ 9.63 µg/mL); in [16] it was 3.1 µM (≈ 9.63 µg/mL); in [9], 6.25 µM (≈ 19.4 µg/mL); in [10], 6.25 µM (≈ 19.4 µg/mL); in test [11], 12.5 µM (≈ 38.8 µg/mL). The minimum inhibitory concentration (MIC) in [17] was 1.6 µM (≈ 4.97 µg/mL); in test [18] it was 6.25 µM (≈ 19.4 µg/mL); in [19], no less than 50 µM; in [20], 3.1 µM (≈ 9.63 µg/mL); in test [21], no less than 100 µM.

Regarding `CC[C@H](C)[C@H](NC(=O)[C@H](CC(C)C)NC(=O)[C@@H]1CCCN1C(=O)[C@H](Cc1c[nH]c2ccccc12)NC(=O)[C@H](CCCCN)NC(=O)[C@H](Cc1c[nH]c2ccccc12)NC(=O)[C@@H]1CCCN1C(=O)[C@H](Cc1c[nH]c2ccccc12)NC(=O)[C@H](Cc1c[nH]c2ccccc12)NC(=O)[C@@H]1CCCN1C(=O)[C@H](Cc1c[nH]c2ccccc12)NC(=O)[C@H](CCCN=C(N)N)NC(=O)[C@@H](N)CCCN=C(N)N)C(N)=O` [RRWPWWPWKWPLI], the MIC in test [1] is 6.55 µM (≈ 12.5 µg/mL); in test [22], 0.4 µM (≈ 0.763 µg/mL); in test [2] it was 0.818 µM (≈ 1.56 µg/mL); in test [3], 0.818 µM (≈ 1.56 µg/mL).

For `C[C@H](NC(=O)[C@H](C)NC(=O)[C@H](C)NC(=O)[C@H](Cc1ccc(O)cc1)NC(=O)[C@H](C)NC(=O)[C@H](C)NC(=O)[C@H](C)NC(=O)[C@H](CCCCN)NC(=O)[C@@H](N)CCCCN)C(=O)N[C@@H](C)C(=O)N[C@@H](C)C(=O)N[C@@H](Cc1ccc(O)cc1)C(=O)N[C@@H](C)C(=O)N[C@@H](C)C(=O)N[C@@H](Cc1c[nH]c2ccccc12)C(=O)N[C@@H](C)C(=O)N[C@@H](C)C(=O)N[C@@H](Cc1ccc(O)cc1)C(=O)N[C@@H](C)C(=O)N[C@@H](C)C(=O)N[C@@H](C)C(=O)N[C@@H](CCCCN)C(=O)N[C@@H](CCCCN)C(=O)N[C@@H](CCCCN)C(=O)N[C@@H](CCCCN)C(N)=O` [KKAAAYAAAAAYAAWAAYAAAKKKK], the MIC in test [23] was 8 µM (≈ 20.2 µg/mL); in [24], 16 µM (≈ 40.4 µg/mL); in test [25], no less than 32 µM; in test [26] it was 0.25 µM (≈ 0.632 µg/mL).

Turning to `CC[C@H](C)[C@H](N)C(=O)N[C@@H](CC(C)C)C(=O)N1CCC[C@H]1C(=O)N[C@@H](CC(C)C)C(=O)N[C@@H](CCCCN)C(=O)N[C@@H](Cc1c[nH]c2ccccc12)C(=O)N1CCC[C@H]1C(=O)N[C@@H](Cc1c[nH]c2ccccc12)C(=O)N[C@@H](Cc1c[nH]c2ccccc12)C(=O)N1CCC[C@H]1C(=O)N[C@@H](Cc1c[nH]c2ccccc12)C(=O)N[C@@H](CCCN=C(N)N)C(=O)N[C@@H](CCCN=C(N)N)C(N)=O` [ILPLKWPWWPWRR], the MIC was 13.6 µM (≈ 25 µg/mL) in [1], 1.71 µM (≈ 3.13 µg/mL) in test [2] and 1.71 µM (≈ 3.13 µg/mL) in [3].
